Test system: rhesus macaque (Macaca mulatta) sperm
Test: Sperm motility in rhesus males after i.v. infusion of EP055
Format: in vivo
From the text: Semen was collected by direct penile stimulation with a P-T Electronics Model 303 PTE 110 Volt AC stimulator equipped with electrocardiogram pad electrodes (10–35 V, 20 ms duration, 18 pulses/sec) as previously described. Semen was collected weekly for 3 weeks to establish baseline parameters for each male. Samples were inspected visually to determine sperm motility and suitability for the study. Sperm motility data from male 28106 presented in S1 Table is representative of pre-treatment samples. Immediately after collection, the seminal plug was separated from the liquefied fraction, placed into a cryovial, flash frozen in liquid nitrogen, and stored at -80C until evaluation for drug levels. Spermatozoa were prepared by centrifugation (7 min, 200 g) of the liquid portion of the ejaculate and resuspending the sperm pellet in TALP-HEPES medium containing 0.3% bovine serum albumin at 37°C. An aliquot was taken to determine concentration using a hemocytometer, percent motility and forward progression as previously described. Baseline semen samples were collected from each male twice during the week prior to treatment. Semen was collected from each male 6–8 hr, 28–30 hr, and 78 hr post-infusion of low dose EP055 (75–80 mg/kg body weight) intravenously. After a one-week recovery period, a baseline semen sample was obtained, and the following week semen samples were collected as described above after an intravenous infusion of high dose EP055 (125–130 mg/kg).
Sperm were diluted in TALP-HEPES medium containing 0.3% bovine serum albumin to achieve 50-100 sperm per field. Videos were taken using an iPhone 6s Plus positioned 12 inches from a Dell model E170Sc 17-inch LCD monitor (1280 x 1024 pixels at 60 Hz, 0.264 mm) attached to an Olympus CK40 inverted microscope using 20x magnification (10x objective). The video camera collected images at a resolution of 1080 x 1920 pixels at 30 frames per second and 401 ppi with a typical contrast ratio of 1300:1 for at least 8 seconds. The pixel size was 1.2 microns and the videos in .mp4 or .mov format. Videos were converted to .avi format using Any Video Converter (version 6.06, http://www.anvsoft.com/any-video-converter-free, Ultimate Media Solutions, AnvSoft Inc). These files were uncompressed using VirtualDub (version 1.10.2, http://www.virtualdub.org/).
Images were analyzed using the MTrackJ plug in (version 1.5.1, https://imagescience.org/meijering/software/mtrackj/) for ImageJ (1.51K, https://fiji.sc/). Briefly, files were imported as uncompressed .avi files, converted to greyscale and saved as .TIFF files. Each image was calibrated by measuring a representative sperm head (acrosomal apex to midpiece) using the Straight Edge Tool, using 5.18 microns as the standard length of a Macaca mulatta sperm head. Approximately 50 sperm per video were manually tracked for the entire length of the track and the mean curvilinear velocity of each track calculated using the MEASURE function. Tracks used in the final analysis were a minimum of 0.4 seconds.
Prior to infusion of EP055, each male was sedated with ketamine by the surgical staff at ONPRC and transported to the operating room. After positioning in dorsal recumbency, the male was intubated and placed under inhalant (isoflurane) anesthesia. Bilateral intravenous catheters were placed in cephalic veins, one for infusion and one for back-up. A percutaneous arterial line was placed in the right femoral artery for direct blood pressure measurement. Invasive blood pressure, heart rate, SpO2, and respirations were monitored by the surgical staff throughout the procedure. Initially, the low doses of EP055 in 5% DMSO-PBS 7.6 was infused by i.v. at 75-80 mg/kg, using a Medfusion 3500 pump (Smiths Medical, St. Paul, MN), and was started at a low flow rate (0.6mg/kg/min). In 3 of 4 males, a 5-10% increase in blood pressure and heart rate were noted within the first 2-3 minutes of infusion of EP055. […]

[1] = high dose 125–130 mg/kg, post-infusion
[2] = male 25854, high dose 125–130 mg/kg, 6 hrs post-iv
[3] = male 25854, high dose 125–130 mg/kg, 30 hrs post-iv
[4] = male 25854, high dose 125–130 mg/kg, 78 hrs post-iv
[5] = male 25854, high dose 125–130 mg/kg, 318 hrs post-iv
[6] = male 25854, high dose 125–130 mg/kg, 390 hrs post-iv
[7] = male 25854, high dose 125–130 mg/kg, 558 hrs post-iv
[8] = male 25854, low dose 75–80 mg/kg, 6 hrs post-iv
[9] = male 25854, low dose 75–80 mg/kg, 30 hrs post-iv
[10] = male 25854, low dose 75–80 mg/kg, 78 hrs post-iv
[11] = male 25854, low dose 75–80 mg/kg, 1206 hrs post-iv
[12] = male 25854, low dose 75–80 mg/kg, 1254 hrs post-iv
[13] = male 28043, high dose 125–130 mg/kg, 6 hrs post-iv
[14] = male 28043, high dose 125–130 mg/kg, 28 hrs post-iv
[15] = male 28043, high dose 125–130 mg/kg, 78 hrs post-iv
[16] = male 28043, high dose 125–130 mg/kg, 360 hrs post-iv
[17] = male 28043, high dose 125–130 mg/kg, 408 hrs post-iv
[18] = male 28043, high dose 125–130 mg/kg, 528 hrs post-iv
[19] = male 28043, low dose 75–80 mg/kg, 6 hrs post-iv
[20] = male 28043, low dose 75–80 mg/kg, 30 hrs post-iv
[21] = male 28043, low dose 75–80 mg/kg, 78 hrs post-iv
[22] = male 28043, low dose 75–80 mg/kg, 480 hrs post-iv
[23] = male 28043, low dose 75–80 mg/kg, 648 hrs post-iv
[24] = male 28106, high dose 125–130 mg/kg, 6 hrs post-iv
[25] = male 28106, high dose 125–130 mg/kg, 30 hrs post-iv
[26] = male 28106, high dose 125–130 mg/kg, 78 hrs post-iv
[27] = male 28106, high dose 125–130 mg/kg, 318 hrs post-iv
[28] = male 28106, high dose 125–130 mg/kg, 390 hrs post-iv
[29] = male 28106, high dose 125–130 mg/kg, 558 hrs post-iv
[30] = male 28106, high dose 125–130 mg/kg, 894 hrs post-iv
[31] = male 28106, low dose 75–80 mg/kg, 6 hrs post-iv
[32] = male 28106, low dose 75–80 mg/kg, 30 hrs post-iv
[33] = male 28106, low dose 75–80 mg/kg, 78 hrs post-iv
[34] = male 28106, low dose 75–80 mg/kg, 342 hrs post-iv
[35] = male 28187, high dose 125–130 mg/kg, 8 hrs post-iv
[36] = male 28187, high dose 125–130 mg/kg, 30 hrs post-iv
[37] = male 28187, high dose 125–130 mg/kg, 78 hrs post-iv
[38] = male 28187, high dose 125–130 mg/kg, 414 hrs post-iv
[39] = male 28187, low dose 75–80 mg/kg, 6 hrs post-iv
[40] = male 28187, low dose 75–80 mg/kg, 30 hrs post-iv
[41] = male 28187, low dose 75–80 mg/kg, 78 hrs post-iv
[42] = male 28187, low dose 75–80 mg/kg, 582 hrs post-iv
[43] = male 28187, low dose 75–80 mg/kg, 678 hrs post-iv

## COC(=O)NNc1nc(Nc2ccc(NC(C)=O)c(O)c2)nc(SCC(=O)O)n1 [EP055]
High dose 125–130 mg/kg, 30 hours post-infusion
  normal motility: no normal motility was observed
[1]
  time at which recovery of sperm motility was obvious: ≤ 78 h
  time to full recovery of sperm motility in all animals: ≤ 18 days
High dose 125–130 mg/kg, within 6 hours post-infusion, mean of 4 animals
  sperm motility: approximately 20%
Low dose 75–80 mg/kg, by 30 hours post-infusion, mean of 4 animals
  normal sperm motility: below 32%
[2]
  F1: 5%
  F2: 80%
  Static: 15%
  VCL ± SEM: 104.6 ± 6.9 um/sec
[3]
  Clumps: Yes
  F1: 10%
  F2: 60%
  Static: 30%
  VCL ± SEM: 120.9 ± 4.8 um/sec
[4]
  Clumps: Few
  F1: 20%
  F2: 25%
  Static: 55%
  VCL ± SEM: 94.2 ± 5.0 um/sec
[5]
  F1: 20%
  F2: 20%
  F3+F4: 10%
  Static: 50%
[6]
  F1: 10%
  F3+F4: 70%
  Static: 20%
  VCL ± SEM: 93.2 ± 5.0 um/sec
[7]
  F1: 1%
  F3+F4: 90%
  Static: 9%
[8]
  Clumps: Few
  F1: 10%
  F3+F4: 70%
  Static: 20%
[9]
  Clumps: Fewer
  F1: 5%
  F3+F4: 80%
  Static: 15%
[10]
  Clumps: Yes
  F1: <1%
  F3+F4: 95%
  Static: 5%
[11]
  F1: 2%
  F3+F4: 83%
  Static: 15%
[12]
  F3+F4: 80%
  Static: 20%
[13]
  Clumps: Yes
  F1: 25%
  F3+F4: 50%
  Static: 25%
[14]
  Clumps: Yes
  F1: 99%
  F3+F4: <1%
  VCL ± SEM: 72.1 ± 12.4 um/sec
[15]
  Clumps: Few
  F1: 10%
  F3+F4: 60%
  Static: 30%
  VCL ± SEM: 117.5 ± 16.3. um/sec
[16]
  F1: 10%
  F3+F4: 65%
  Static: 25%
[17]
  Clumps: Yes
  F1: 5%
  F3+F4: 70%
  Static: 25%
[18]
  F2: 5%
  F3+F4: 80%
  Static: 15%
  VCL ± SEM: 135.0 ± 12.6 um/sec
[19]
  Clumps: Few
  F3+F4: 75%
  Static: 25%
[20]
  Clumps: Yes
  F1: 20%
  F3+F4: 30%
  Static: 50%
[21]
  Clumps: Yes
  F1: 20%
  F2: 50%
  Static: 30%
[22]
  F3+F4: 80%
  Static: 20%
[23]
  F1: 5%
  F3+F4: 80%
  Static: 15%
[24]
  Clumps: Yes
  F1: 55%
  F2: 25%
  Static: 20%
  VCL ± SEM: 72.8 ± 4.8 um/sec
[25]
  Clumps: Yes
  F1: 20%
  F2: 5%
  Static: 75%
  VCL ± SEM: 67.5 ± 7.9 um/sec
[26]
  Clumps: Yes
  F1: 15%
  F2: 20%
  F3+F4: 10%
  Static: 55%
  VCL ± SEM: 80.3 ± 6.9 um/sec
[27]
  Clumps: Yes
  F1: 30%
  F2: 20%
  F3+F4: 25%
  Static: 25%
[28]
  Clumps: Yes
  F1: 15%
  F2: 10%
  F3+F4: 50%
  Static: 25%
[29]
  Clumps: Yes
  F1: 15%
  F2: 40%
  F3+F4: 15%
  Static: 30%
[30]
  F1: 2%
  F3+F4: 78%
  Static: 20%
  VCL ± SEM: 101.7 ± 4.1 um/sec
[31]
  Clumps: Yes
  F1: 20%
  F3+F4: 50%
  Static: 30%
  VCL ± SEM: 135.8 ± 6.8 um/sec
[32]
  Clumps: Yes
  F1: 25%
  F2: 45%
  F3+F4: 5%
  Static: 25%
  VCL ± SEM: 105.1 ± 7.0 um/sec
[33]
  Clumps: Yes
  F1: 30%
  F2: 40%
  Static: 30%
  VCL ± SEM: 89.7 ± 6.3 um/sec
[34]
  F1: 5%
  F3+F4: 80%
  Static: 15%
  VCL ± SEM: 105.0 ± 5.8 um/sec
[35]
  Clumps: Yes
  F1: 10%
  F2: 50%
  F3+F4: 30%
  Static: 10%
  VCL ± SEM: 52.9 ± 3.0 um/sec
[36]
  Clumps: Yes
  F1: 10%
  F2: 80%
  Static: 10%
  VCL ± SEM: 40.5 ± 2.7 um/sec
[37]
  Clumps: Fewer
  F1: 95%
  Static: 5%
  VCL ± SEM: 25.4 ± 2.6 um/sec
[38]
  Clumps: Few
  F1: 10%
  F3+F4: 85%
  Static: 5%
  VCL ± SEM: 87.3 ± 6.2 um/sec
[39]
  Clumps: Few
  F1: 35%
  F3+F4: 65%
[40]
  Clumps: Yes
  F3+F4: 10%
  Static: 90%
[41]
  Clumps: Yes
  F1: 95%
  F3+F4: 5%
[42]
  F1: 95%
  F3+F4: 5%
[43]
  F3+F4: 80%
  Static: 20%
  VCL ± SEM: 109.4 ± 13.8 um/sec
post-infusion
  sperm clumping: severe sperm clumping
rhesus
  potential contraceptive window following administration: 24 to 48 h
  time necessary for sperm velocity to recover completely: more than 3 weeks

— publication PMC5908160, “Inhibition of sperm motility in male macaques with EP055, a potential non-hormonal male contraceptive” (PLoS ONE, 2018)
